Common to all, as to assay type: biochemical
In assay [1] the target is T1, propionyl-CoA carboxylase from Methylobacterium extorquens (PCCMe) variant PCCMe_D407I_Y143H (pccA SEQ ID NO: 2; pccB_D407I_Y143H SEQ ID NO: 6) (Methylorubrum extorquens, UniProt C5AP75+C5AWU5, D407I/Y143H).
T1 sequence (C5AP75 1-510 Y143H/D407I): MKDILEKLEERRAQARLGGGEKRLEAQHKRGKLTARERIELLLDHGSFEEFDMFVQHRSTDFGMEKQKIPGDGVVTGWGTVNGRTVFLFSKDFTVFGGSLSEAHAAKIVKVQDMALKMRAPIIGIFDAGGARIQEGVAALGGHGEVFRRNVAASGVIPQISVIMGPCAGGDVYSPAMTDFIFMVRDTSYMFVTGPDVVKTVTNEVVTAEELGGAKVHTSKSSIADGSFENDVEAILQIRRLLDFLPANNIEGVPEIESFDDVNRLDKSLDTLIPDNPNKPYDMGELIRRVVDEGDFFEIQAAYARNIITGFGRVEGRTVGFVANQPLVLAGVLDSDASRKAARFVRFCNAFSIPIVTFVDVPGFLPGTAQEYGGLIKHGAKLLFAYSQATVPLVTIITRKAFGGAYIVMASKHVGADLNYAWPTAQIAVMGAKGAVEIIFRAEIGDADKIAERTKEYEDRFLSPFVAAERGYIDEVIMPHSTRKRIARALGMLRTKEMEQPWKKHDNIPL
T1 sequence (C5AWU5 1-667): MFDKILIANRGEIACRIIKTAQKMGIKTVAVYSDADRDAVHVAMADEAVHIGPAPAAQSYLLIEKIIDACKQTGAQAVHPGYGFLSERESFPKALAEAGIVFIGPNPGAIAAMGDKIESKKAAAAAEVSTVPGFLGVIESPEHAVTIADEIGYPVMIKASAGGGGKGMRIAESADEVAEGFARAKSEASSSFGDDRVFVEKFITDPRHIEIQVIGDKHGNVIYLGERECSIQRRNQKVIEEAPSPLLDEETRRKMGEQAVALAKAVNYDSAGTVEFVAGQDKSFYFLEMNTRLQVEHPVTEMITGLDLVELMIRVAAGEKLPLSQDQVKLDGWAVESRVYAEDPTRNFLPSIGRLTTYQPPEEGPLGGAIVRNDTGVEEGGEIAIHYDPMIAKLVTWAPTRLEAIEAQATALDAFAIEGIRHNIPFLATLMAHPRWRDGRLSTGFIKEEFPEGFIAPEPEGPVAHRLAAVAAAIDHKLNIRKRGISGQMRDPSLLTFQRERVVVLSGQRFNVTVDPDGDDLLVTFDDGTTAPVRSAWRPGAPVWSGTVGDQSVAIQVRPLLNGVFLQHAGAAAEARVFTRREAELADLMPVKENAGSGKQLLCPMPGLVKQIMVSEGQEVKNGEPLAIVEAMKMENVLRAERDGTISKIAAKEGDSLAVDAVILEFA
Description: PCCMe_D407I_Y143H activity for conversion of glycolyl-CoA into tartronyl-CoA (reaction 3#), coupled ATP hydrolysis (PK/LDH) assay. The conditions noted are these: 37° C., pH 7.7, ATP hydrolysis assay, 0.125-3 mM glycolyl-CoA; n=2.

The target of assay [2] is T2, malonyl-CoA reductase from Chloroflexus aurantiacus (MCRCa), SEQ ID NO: 8 (Chloroflexus aurantiacus, UniProt Q6QQP7).
T2 sequence (Q6QQP7 1-1220): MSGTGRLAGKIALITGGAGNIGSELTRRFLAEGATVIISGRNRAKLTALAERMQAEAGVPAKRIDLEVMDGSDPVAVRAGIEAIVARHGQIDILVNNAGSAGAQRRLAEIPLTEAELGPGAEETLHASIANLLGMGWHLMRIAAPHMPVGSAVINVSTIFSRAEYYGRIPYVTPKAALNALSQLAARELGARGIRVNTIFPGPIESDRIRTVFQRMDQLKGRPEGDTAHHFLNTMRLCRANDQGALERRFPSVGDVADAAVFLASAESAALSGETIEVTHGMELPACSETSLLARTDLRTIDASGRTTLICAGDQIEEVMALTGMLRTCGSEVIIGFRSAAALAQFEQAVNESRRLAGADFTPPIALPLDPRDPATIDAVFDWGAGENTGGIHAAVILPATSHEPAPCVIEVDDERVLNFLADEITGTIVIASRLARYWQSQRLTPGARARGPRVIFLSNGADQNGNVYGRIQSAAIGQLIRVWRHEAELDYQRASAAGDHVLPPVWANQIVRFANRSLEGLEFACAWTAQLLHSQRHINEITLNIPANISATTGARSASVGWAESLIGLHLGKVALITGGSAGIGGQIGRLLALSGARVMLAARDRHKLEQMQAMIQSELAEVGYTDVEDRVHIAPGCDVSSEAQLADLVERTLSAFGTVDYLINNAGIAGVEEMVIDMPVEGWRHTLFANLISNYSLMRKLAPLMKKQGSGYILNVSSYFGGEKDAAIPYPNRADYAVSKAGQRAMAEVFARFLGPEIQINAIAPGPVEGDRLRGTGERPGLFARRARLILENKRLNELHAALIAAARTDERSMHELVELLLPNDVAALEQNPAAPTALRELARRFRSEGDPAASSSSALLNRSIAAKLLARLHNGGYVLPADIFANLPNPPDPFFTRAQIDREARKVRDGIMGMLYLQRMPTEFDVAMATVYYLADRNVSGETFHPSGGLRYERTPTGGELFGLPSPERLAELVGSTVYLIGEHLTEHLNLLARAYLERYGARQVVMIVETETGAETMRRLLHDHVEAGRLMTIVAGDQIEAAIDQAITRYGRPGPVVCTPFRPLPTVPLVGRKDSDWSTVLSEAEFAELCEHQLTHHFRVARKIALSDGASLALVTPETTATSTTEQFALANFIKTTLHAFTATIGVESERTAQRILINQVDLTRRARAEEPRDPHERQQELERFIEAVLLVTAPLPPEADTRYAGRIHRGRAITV
Briefly: MCRCa activity for conversion of tartronyl-CoA into glycerate (reactions 4# and 5), NADPH oxidation. The note with it: FIG. 8D and Table 5; 37° C., pH 7.5, 0.4 mM NADPH; n=3. The method, then:
For the heterologous expression of the MCRCa protein (amino acid sequence is shown in SEQ ID NO: 8; corresponding nucleic acid sequence encoding the protein is depicted in SEQ ID NO: 7) the previously described pTRC-MCRCa plasmid (Kröger et al., 2011, Analytical biochemistry, 411(1), 100-105) was employed.
Cells were harvested at 10 000×g for 10 min and cell pellets were stored at −80° C. until purification of enzymes. Cell pellets of MCRCa and MCRE overexpressing cells were resuspended in two-fold volume of buffer AStrep (50 mM Tris/HCl, 150 mM NaCl, pH 7.8) containing 0.1 mg mL^−1 DNAse I. The cell suspension was passed through a French pressure cell twice at a pressure of 137 MPa and centrifuged at 100 000×g and 4° C. for 1 h. The supernatant was filtered through a 0.45 μm syringe filter and loaded at a flow rate of 1 mL min^−1 onto a 1 mL StrepTrap™ HP column (GE healthcare) which had previously been equilibrated with 5 column volumes of buffer AStrep. The column was washed with 20 column volumes of buffer AStrep and the protein was eluted with buffer AStrep containing 3 mM desthiobiotin. […]
The kinetics of the MCRCa enzyme for enzymatically converting the substrate tartonyl-CoA into glycerate (via reactions 4# and 5 both catalyzed by MCRCa) were determined spectrophotometrically at 365 nm following the oxidation of NADPH. […]

Assay [3] deals with malonyl-CoA reductase from Erythrobacter sp. NAP1 (MCRE), SEQ ID NO: 10. Briefly: MCRE activity for conversion of tartronyl-CoA into glycerate (reactions 4# and 5), NADPH oxidation. The note with it: 37° C., assay as for MCRCa; n=2.

The Km is the concentration of substrate that gives half-maximal velocity.

For the molecule `CC(C)(COP(=O)(O)OP(=O)(O)OC[C@H]1O[C@@H](n2cnc3c(N)ncnc32)[C@H](O)[C@@H]1OP(=O)(O)O)[C@@H](O)C(=O)NCCC(=O)NCCSC(=O)CO` [glycolyl-CoA], in assay [1], the vmax is listed as 1.5 ± 0.09 U mg^−1.

Consider `CC(C)(COP(=O)(O)OP(=O)(O)OC[C@H]1O[C@@H](n2cnc3c(N)ncnc32)[C@H](O)[C@@H]1OP(=O)(O)O)[C@@H](O)C(=O)NCCC(=O)NCCSC(=O)C(O)C(=O)O` (stereo partly shown) [tartronyl-CoA], for which, in assay [2], the vmax is 0.6 ± 0.01 U mg^−1. In assay [3], the Km amounted to 180 ± 40 µM and the vmax was determined as 0.23±0.01 U mg^−1.

These data come from patent publication US10781456B2, “Carbon-neutral and carbon-positive photorespiration bypass routes supporting higher photosynthetic rate and yield” (Max-Planck-Gesellschaft zur Förderung der Wissenschaften …, priority 2015, dated 2020).
